Experimental data reported in patent publication US7214690B2, “Tricyclic quinolinone and tricyclic quinoline androgen receptor modulator compounds and methods” (Ligand Pharmaceuticals Incorporated, priority 2001, dated 2007).

Experiments:
PR = biological target: T1, PR (Homo sapiens, UniProt P06401); assay: co-transfection assay, PR; type: cell-based
T1 construct: expressed in transfected cells; host or cells: background cell substantially devoid of endogenous IRs (CV-1 described for the co-transfection assay)
T1 sequence (P06401 1-933): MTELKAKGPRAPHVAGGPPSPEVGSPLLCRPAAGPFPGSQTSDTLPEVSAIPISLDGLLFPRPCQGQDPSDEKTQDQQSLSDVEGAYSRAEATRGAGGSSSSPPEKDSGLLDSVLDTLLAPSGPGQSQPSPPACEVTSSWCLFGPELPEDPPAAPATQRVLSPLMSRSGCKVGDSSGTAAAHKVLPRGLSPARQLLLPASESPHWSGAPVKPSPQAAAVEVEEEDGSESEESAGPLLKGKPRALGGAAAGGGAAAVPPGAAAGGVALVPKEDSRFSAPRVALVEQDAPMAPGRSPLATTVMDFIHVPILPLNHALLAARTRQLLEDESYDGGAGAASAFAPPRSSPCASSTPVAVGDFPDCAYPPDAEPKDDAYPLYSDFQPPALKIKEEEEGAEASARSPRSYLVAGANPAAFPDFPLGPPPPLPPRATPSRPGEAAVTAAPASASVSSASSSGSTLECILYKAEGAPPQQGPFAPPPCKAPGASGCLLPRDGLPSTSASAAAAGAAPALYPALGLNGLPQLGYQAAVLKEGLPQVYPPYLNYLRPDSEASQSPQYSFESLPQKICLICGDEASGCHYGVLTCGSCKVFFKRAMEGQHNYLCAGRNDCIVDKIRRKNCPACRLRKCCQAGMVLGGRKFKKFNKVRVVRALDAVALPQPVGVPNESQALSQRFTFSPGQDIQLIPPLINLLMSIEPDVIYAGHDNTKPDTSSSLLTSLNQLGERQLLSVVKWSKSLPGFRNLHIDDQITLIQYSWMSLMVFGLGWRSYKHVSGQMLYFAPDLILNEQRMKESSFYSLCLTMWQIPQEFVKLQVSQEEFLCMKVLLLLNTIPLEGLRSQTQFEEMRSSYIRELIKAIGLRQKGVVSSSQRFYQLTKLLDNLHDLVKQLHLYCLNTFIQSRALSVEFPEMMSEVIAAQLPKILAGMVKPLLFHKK
Procedure: (§1) CV-1 cells (African green monkey kidney fibroblasts) were cultured in the presence of Dulbecco's Modified Eagle Medium (DMEM) supplemented with 10% charcoal resin-stripped fetal bovine serum (CH-FBS) then transferred to 96-well microtiter plates one day prior to transfection.
(§2) Three to four replicates were used for each sample.
(§3) After 40 hours, the cells were washed with PBS, lysed with a Triton X-100-based buffer and assayed for LUC and β-Gal activities using a luminometer or spectrophotometer, respectively. For each replicate, the normalized response (NR) was calculated as: LUC response/β-Gal rate • where β-Gal rate=β-Gal/β-Gal incubation time.

ER = biological target: T2, ER (Homo sapiens, UniProt P03372); assay: co-transfection assay, ER; type: cell-based
T2 construct: expressed in transfected cells; host or cells: background cell substantially devoid of endogenous IRs (CV-1 described for the co-transfection assay)
T2 sequence (P03372 1-595): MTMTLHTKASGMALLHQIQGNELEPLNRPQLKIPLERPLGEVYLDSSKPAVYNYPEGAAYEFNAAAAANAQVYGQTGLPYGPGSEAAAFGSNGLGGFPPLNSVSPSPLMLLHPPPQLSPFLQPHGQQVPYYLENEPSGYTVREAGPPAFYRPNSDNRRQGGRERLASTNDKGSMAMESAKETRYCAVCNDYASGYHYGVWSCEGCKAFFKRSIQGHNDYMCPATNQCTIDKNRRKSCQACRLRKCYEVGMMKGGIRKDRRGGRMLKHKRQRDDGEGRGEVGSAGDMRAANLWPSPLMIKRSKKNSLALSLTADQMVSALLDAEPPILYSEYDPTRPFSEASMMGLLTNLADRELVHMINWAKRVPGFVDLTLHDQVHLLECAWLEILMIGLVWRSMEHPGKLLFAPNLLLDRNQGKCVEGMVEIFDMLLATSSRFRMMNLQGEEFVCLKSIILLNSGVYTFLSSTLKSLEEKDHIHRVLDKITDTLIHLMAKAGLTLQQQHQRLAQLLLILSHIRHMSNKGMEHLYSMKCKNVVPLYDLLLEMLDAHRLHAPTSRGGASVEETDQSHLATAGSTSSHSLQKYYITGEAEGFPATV
Procedure: as §1, §2, §3

CC[C@@H]1COc2c(ccc3[nH]c(=O)cc(C(F)(F)F)c23)N1CC(F)(F)F [Compound 110, (3R)-3-Ethyl-2,3,4,7-tetrahydro-4-(2,2,2-trifluoroethyl)-10-(trifluoromethyl)-8H-[1,4]oxazino[2,3-f]quinolin-8-one]
> 10 µM: EC50 (PR) | EC50 (ER) | IC50 (ER)

C=CCN1c2ccc3[nH]c(=O)cc(C(F)(F)F)c3c2OC[C@H]1CC [Compound 114, (3R)-4-Allyl-3-ethyl-2,3,4,7-tetrahydro-10-(trifluoromethyl)-8H-[1,4]oxazino[2,3-f]quinolin-8-one]
> 10 µM: EC50 (PR) | EC50 (ER) | IC50 (ER)

CC(C)[C@@H]1COc2c(ccc3[nH]c(=O)cc(C(F)(F)F)c23)N1CC(F)(F)Cl [Compound 124, (3R)-4-(2-Chloro-2,2-difluoroethyl)-2,3,4,7-tetrahydro-3-isopropyl-10-(trifluoromethyl)-8H-[1,4]oxazino[2,3-f]quinolin-8-one]
> 10 µM: EC50 (PR) | EC50 (ER) | IC50 (ER)
